{
  "source": "patent EP0947494A1",
  "about": "“Derivatives of phenoxy acetic acid and phenoxymethyltetrazole having antitumor activity” (F. HOFFMANN-LA ROCHE AG, priority 1998, dated 1999)",
  "key": {"MCF-7 cells": {"system": "MCF-7 cells", "experiment": "Radiosensitizing activity assay, surviving cells counted by trypan blue staining", "type": "cell-based, Human", "method": "(§1) Biological assay for radiosensitizing activity of MDM2 antagonistic compounds: Human tumor cell lines containing wild-type p53 and low levels of GST, such as MCF7 (breast carcinoma) or mutant p53 and a high GST content, such as MCF7 ADR (adriamycin-resistant breast carcinoma) are cultivated in RPMI medium, supplemented with 10% fetal calf serum to a semi-confluent state.\nIn order to determine the radiosensitizing activity of selected compounds on these cells a minimal toxic dose was determined as 2Gy (gray: J/kg) with a ^137Cesium source at room temperature. Following irradiation of monolayer cells in exponential growth phase with 2 Gy, cells were incubated with various concentrations of the selected compounds for 2-6 h. Cells were trypsinized and seeded in appropriate dilutions into 6 well plates. Surviving cells were trypsinized after 12-13 days and cell number was determined by staining with trypane blue for living/dead cells. The protocol was established according to Khil et al., 1996, Int. J. Rad. Oncol. Biol. Phys. 34, 375-380."}, "HT29 cytosolic GST": {"target": "HT29 cytosolic GST (Homo sapiens, UniProt P09211)", "sequence (P09211 2-210)": "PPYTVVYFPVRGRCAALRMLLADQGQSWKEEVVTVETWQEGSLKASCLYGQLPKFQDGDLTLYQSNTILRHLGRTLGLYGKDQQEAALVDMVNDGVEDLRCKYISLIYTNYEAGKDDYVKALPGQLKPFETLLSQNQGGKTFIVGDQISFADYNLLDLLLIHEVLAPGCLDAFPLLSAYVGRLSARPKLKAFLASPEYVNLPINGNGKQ", "experiment": "Spectrophotometric GST activity analysis in HT29 cell extracts (CDNB/glutathione)", "type": "biochemical", "settings": "HT29 cell extract", "method": "GST catalyzes the conjugation of CDNB with glutathione and results in a CDNB-glutathione product with a strong molar absorption at 340 nm. The change of absorption is monitored for 5 min.\n1 x 10^6 cells are collected and washed once with ice-cold phosphate-buffered saline at 1000 rpm for 10 min at 4°C. Cell pellets are resuspended in 200 µl ice-cold phosphate-buffered saline, and are sonicated for 2 min on ice. The sonicate is then centrifuged at 11750 g, 4°C for 15 min in an Eppendorf Centrifuge, and the supernatant is assayed for GST activity."}, "MCF-7 ADR cells": {"system": "MCF-7 ADR cells", "experiment": "Radiosensitizing activity assay, surviving cells counted by trypan blue staining", "type": "cell-based, Human", "settings": "for radiosensitization: MCF-7 ADR cells (mutant p53, high GST content); for % living cells relative to control without drug treatment: MCF-7ADR", "method": "as §1\nIn order to determine the radiosensitizing activity of selected compounds on these cells a minimal toxic dose was determined as 2Gy (gray: J/kg) with a ^137Cesium source at room temperature. […] Cells were trypsinized and seeded in appropriate dilutions into 6 well plates. Surviving cells were trypsinized after 12-13 days and cell number was determined by staining with trypane blue for living/dead cells. The protocol was established according to Khil et al., 1996, Int. J. Rad. Oncol. Biol. Phys. 34, 375-380."}, "MDM2": {"target": "T1, MDM2 (Homo sapiens, UniProt Q00987)", "T1 construct": "40 µl of mdm2 1-213 (100nM in PBST) were mixed with 40 µl of the sample; made in house", "T1 sequence (Q00987 1-213)": "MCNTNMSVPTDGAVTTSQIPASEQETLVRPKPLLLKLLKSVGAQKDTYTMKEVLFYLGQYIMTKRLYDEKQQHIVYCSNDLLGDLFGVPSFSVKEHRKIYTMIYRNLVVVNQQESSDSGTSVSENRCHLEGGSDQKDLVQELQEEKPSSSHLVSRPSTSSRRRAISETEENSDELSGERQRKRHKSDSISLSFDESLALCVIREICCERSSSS", "experiment": "Interaction of compounds with MDM2", "type": "binding", "method": "BIACORE analysis of the interaction between MDM2 and p53: To quantify the effect of selected compounds on the p53 binding properties of MDM2 protein biosensor measurements using BIACORE 2000 are performed. BIACORE 2000 is a biosensor system delivered from BIACORE AB. The technology of this biosensor is based on the optical phenomenon of surface plasmon resonance (SRP), which detects changes in refractive index of the solution close to the surface of the sensor chip. The refractive index is directly correlated to the mass concentration in the layer and increases when analyte binds to a surface immobilized ligand. Experiments are performed under continuous flow conditions. The SPR response expressed in resonance units (RU) is recorded continuously versus time resulting in a sensorgram. When one interaction is completed, the surface can be regenerated using solutions which remove bound analyte without affecting the activity of the bound ligand. […] After additional 4 minutes rinsing the surface with PBST buffer, a signal was recorded. By comparing the signals of the samples with those of buffer, the inhibitory effects of the samples could be evaluated. […]"}, "[1]": {"settings": "2 Gy + drug 20 µg/ml, drug incubation time following irradiation 0 hours"}, "[2]": {"settings": "2 Gy + drug 20 µg/ml, drug incubation time following irradiation 2 hours"}, "[3]": {"settings": "2 Gy + drug 20 µg/ml, drug incubation time following irradiation 6 hours"}, "[4]": {"settings": "drug alone 20 µg/ml, drug incubation time 0 hours"}, "[5]": {"settings": "drug alone 20 µg/ml, drug incubation time 2 hours"}, "[6]": {"settings": "drug alone 20 µg/ml, drug incubation time 6 hours"}},
  "data": [
    {"molecule": "O=C(O)COc1ccc(C(=O)/C=C/c2ccc(Cl)c(Cl)c2)cc1", "note": "[LSM 83177, 3,4-dichloro-4'-(carboxymethoxy)chalcone]", "values": [
      {"measurement": "% living cells relative to control without drug treatment", "setting": "MCF-7 cells; [1]", "result": 100, "unit": "%"},
      {"measurement": "% living cells relative to control without drug treatment", "setting": "MCF-7 cells; [2]", "result": 41.8, "unit": "%"},
      {"measurement": "% living cells relative to control without drug treatment", "setting": "MCF-7 cells; [3]", "result": 17, "unit": "%"},
      {"measurement": "% living cells relative to control without drug treatment", "setting": "MCF-7 cells; [4]", "result": 100, "unit": "%"},
      {"measurement": "% living cells relative to control without drug treatment", "setting": "MCF-7 cells; [5]", "result": 64.1, "unit": "%"},
      {"measurement": "% living cells relative to control without drug treatment", "setting": "MCF-7 cells; [6]", "result": 36.4, "unit": "%"},
      {"measurement": "enhancement of irradiation by the drug (factor)", "setting": "MCF-7 cells; drug incubated for 2 hours", "result": 1.5},
      {"measurement": "enhancement of irradiation by the drug (factor)", "setting": "MCF-7 cells; drug incubated for 6 hours", "result": 2},
      {"measurement": "activity at 0.2 µg/mL", "setting": "HT29 cytosolic GST; concentration 0,2 µg/ml", "result": 100, "unit": "%"},
      {"measurement": "activity at 0.04 µg/mL", "setting": "HT29 cytosolic GST; concentration 0,04 µg/ml", "result": 100, "unit": "%"},
      {"measurement": "activity at 0.4 µg/mL", "setting": "HT29 cytosolic GST; concentration 0,4 µg/ml", "result": 100, "unit": "%"},
      {"measurement": "activity at 1 µg/mL", "setting": "HT29 cytosolic GST; concentration 1 µg/ml", "result": 100, "unit": "%"},
      {"measurement": "activity at 2 µg/mL", "setting": "HT29 cytosolic GST; concentration 2 µg/ml", "result": 100, "unit": "%"},
      {"measurement": "activity at 5 µg/mL", "setting": "HT29 cytosolic GST; concentration 5 µg/ml", "result": 73, "unit": "%"},
      {"measurement": "activity at 8 µg/mL", "setting": "HT29 cytosolic GST; concentration 8 µg/ml", "result": 46, "unit": "%"},
      {"measurement": "activity at 10 µg/mL", "setting": "HT29 cytosolic GST; concentration 10 µg/ml", "result": 26, "unit": "%"},
      {"measurement": "activity at 20 µg/mL", "setting": "HT29 cytosolic GST; concentration 20 µg/ml", "result": 0, "unit": "%"},
      {"measurement": "activity at 1.3 µg/mL", "setting": "HT29 cytosolic GST; concentration 1,3 µg/ml", "result": 100, "unit": "%"},
      {"measurement": "activity at 2.5 µg/mL", "setting": "HT29 cytosolic GST; concentration 2,5 µg/ml", "result": 95, "unit": "%"},
      {"measurement": "radiosensitization", "setting": "MCF-7 ADR cells", "result": "Radiosensitizing activity independent of the GST content of the target cell can be observed"},
      {"measurement": "% living cells relative to control without drug treatment", "setting": "MCF-7 ADR cells; [1]", "result": 100, "unit": "%"},
      {"measurement": "% living cells relative to control without drug treatment", "setting": "MCF-7 ADR cells; [2]", "result": 72.8, "unit": "%"},
      {"measurement": "% living cells relative to control without drug treatment", "setting": "MCF-7 ADR cells; [3]", "result": 48.8, "unit": "%"},
      {"measurement": "% living cells relative to control without drug treatment", "setting": "MCF-7 ADR cells; [4]", "result": 100, "unit": "%"},
      {"measurement": "% living cells relative to control without drug treatment", "setting": "MCF-7 ADR cells; [5]", "result": 87.2, "unit": "%"},
      {"measurement": "% living cells relative to control without drug treatment", "setting": "MCF-7 ADR cells; [6]", "result": 85.7, "unit": "%"}
    ]},
    {"molecule": "C=C(CC)C(=O)c1ccc(OCC(=O)O)c(Cl)c1Cl", "note": "[ethacrynic acid, reference compound]", "values": [
      {"measurement": "interaction with MDM2", "setting": "MDM2", "result": "interaction of ethacrynic acid with MDM2 was surprisingly observed"},
      {"measurement": "% living cells relative to control without drug treatment", "setting": "MCF-7 cells; [1]", "result": 100, "unit": "%"},
      {"measurement": "% living cells relative to control without drug treatment", "setting": "MCF-7 cells; [2]", "result": 42.7, "unit": "%"},
      {"measurement": "% living cells relative to control without drug treatment", "setting": "MCF-7 cells; [3]", "result": 20.5, "unit": "%"},
      {"measurement": "% living cells relative to control without drug treatment", "setting": "MCF-7 cells; [4]", "result": 100, "unit": "%"},
      {"measurement": "% living cells relative to control without drug treatment", "setting": "MCF-7 cells; [5]", "result": 52.3, "unit": "%"},
      {"measurement": "% living cells relative to control without drug treatment", "setting": "MCF-7 cells; [6]", "result": 43.1, "unit": "%"},
      {"measurement": "enhancement of irradiation by the drug (factor)", "setting": "MCF-7 cells; drug incubated for 2 hours", "result": 1.5},
      {"measurement": "enhancement of irradiation by the drug (factor)", "setting": "MCF-7 cells; drug incubated for 6 hours", "result": 2},
      {"measurement": "radiosensitization", "setting": "MCF-7 ADR cells", "result": "does not mediate any radiosensitization"},
      {"measurement": "% living cells relative to control without drug treatment", "setting": "MCF-7 ADR cells; [1]", "result": 100, "unit": "%"},
      {"measurement": "% living cells relative to control without drug treatment", "setting": "MCF-7 ADR cells; [2]", "result": 82.5, "unit": "%"},
      {"measurement": "% living cells relative to control without drug treatment", "setting": "MCF-7 ADR cells; [3]", "result": 133.6, "unit": "%"},
      {"measurement": "% living cells relative to control without drug treatment", "setting": "MCF-7 ADR cells; [4]", "result": 100, "unit": "%"},
      {"measurement": "% living cells relative to control without drug treatment", "setting": "MCF-7 ADR cells; [5]", "result": 88.9, "unit": "%"},
      {"measurement": "% living cells relative to control without drug treatment", "setting": "MCF-7 ADR cells; [6]", "result": 99, "unit": "%"}
    ]}
  ]
}
